Assay results from PubChem BioAssay (NCI).
“And” between values parts separate entries of the source, which are not always exact repeats. Identical values can stand only once.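 Each compound was tested at five concentrations against cells in 96-well plates for 48 hours. GI50: concentration for 50% inhibition of growth. TGI marks complete inhibition of growth.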

Assays:
Assay in all cases: growth of human tumour cells (NCI), 48 h
[1] = test system: PC-3 prostate
[2] = test system: SK-MEL-5 melanoma
[3] = test system: IGROV1 ovarian
[4] = test system: UO-31 renal
[5] = test system: MDA-MB-435
[6] = test system: NCI-H23 lung
[7] = test system: EKVX NSCLC
[8] = test system: SK-MEL-2 melanoma
[9] = test system: LOX IMVI melanoma
[10] = test system: DU-145 prostate

| Structure (SMILES) | GI50 [1] | TGI [1] | GI50 [2] | TGI [2] | GI50 [3] | TGI [3] | GI50 [4] | TGI [4] | GI50 [5] | TGI [5] | GI50 [6] | TGI [6] | GI50 [7] | TGI [7] | GI50 [8] | TGI [8] | GI50 [9] | TGI [9] | GI50 [10] | TGI [10] |
| --- | --- | --- | --- | --- | --- | --- | --- | --- | --- | --- | --- | --- | --- | --- | --- | --- | --- | --- | --- | --- |
| COc1ccc2nc3ccccc3c(NCCNCC(C)O)c2c1 (centres undefined) | 0.537 µM | 4.82 µM | 1.03 µM | 2.3 µM | 0.387 µM | 5.93 µM | 0.398 µM | 2.39 µM | 0.433 µM | 1.77 µM | 0.367 µM | 2.05 µM | 1.1 µM | 7.82 µM | 0.785 µM | 2.8 µM | 0.202 µM | 0.483 µM | 0.516 µM | 14.7 µM |
| CC1=C[C@@H]2c3c(c(O)c(O)c4oc5cc(O)cc(O)c5c(=O)c34)[C@@H](c3cc(O)c(O)c4oc5cc(O)cc(O)c5c(=O)c34)[C@@H]2C(C)(C)C1 | 3.33 µM | 14 µM | 2.56 µM | 10.5 µM | 4.01 µM | 22.2 µM | 3.83 µM | 16.3 µM | 3.49 µM | 13.7 µM | 3.33 µM | 14.5 µM | 5 µM | 15.6 µM | 5.99 µM | 21 µM | 1.53 µM | 4.26 µM | 5.53 µM | 16.6 µM |
| CCS(=O)(=O)c1ccc(OC)c(Nc2ncc(-c3cccc(F)c3)o2)c1 | > 25 µM | > 25 µM | > 25 µM | > 25 µM | > 25 µM | > 25 µM | > 25 µM | > 25 µM | > 25 µM | > 25 µM | > 25 µM | > 25 µM | > 25 µM | > 25 µM | > 25 µM | > 25 µM | > 25 µM | > 25 µM | > 25 µM | > 25 µM |
| O=C(NCCNCCO)c1ccc(Nc2nc3ccccc3c3occc23)cc1 | 4.15 µM | 18.3 µM | 18.4 µM | 35.2 µM | 6.71 µM | 25.1 µM | 18.5 µM | 44.9 µM | 7.29 µM | 22 µM | 12.8 µM | 26.4 µM | 13.9 µM | 32 µM | 20.5 µM | 60.3 µM | 8.45 µM | 22.2 µM | 14.9 µM | 30.7 µM |
| CCOCCOCCOCCOCCOCCOCCOCCOCCOCCO (tested in a mixture with another compound) | 1.01 µM | 6.5 µM | 0.586 µM | 1.81 µM | 3.19 µM | 15.8 µM | 1.58 µM | 18.7 µM | 1.45 µM | – | 0.957 µM | 5.32 µM | 1.26 µM | 9.62 µM | 1.2 µM | 3.81 µM | 0.81 µM | 2.9 µM | 2.6 µM | 15.2 µM |
| CSc1ccc(C(=O)/C=C/c2ccc(Cl)cc2Cl)cc1 | 39.6 µM | > 100 µM | 21.9 µM | 59 µM | 15.6 µM | 31.9 µM | 22.4 µM | 81.7 µM | 26.3 µM | 88.3 µM | 21.9 µM | 57.4 µM | 20.2 µM | 78.8 µM | 17.6 µM | 59.3 µM | 20 µM | 37 µM | 25.7 µM | 89.2 µM |
| CCOC(=O)/C=C1/SC(=Nc2ccc(C#N)cc2)N(Cc2ccco2)C1=O | 3.11 µM | 9.96 µM | 6.71 µM | 20.4 µM | 3.22 µM | 20.2 µM | 1.45 µM | 2.86 µM | 3.44 µM | 15.8 µM | 10.6 µM | 34.5 µM | 5.66 µM | 30.2 µM | 7.65 µM | 25.3 µM | 1.72 µM | 3.32 µM | 3.17 µM | 10.5 µM |
| N=C(CC(=O)Nc1ccccn1)c1ccccc1 | – | > 100 µM | – | > 100 µM | – | > 100 µM | – | > 100 µM | – | > 100 µM | – | > 100 µM | – | > 100 µM | – | > 100 µM | – | > 100 µM | – | > 100 µM |
| O=C(C(=CN1CCN(C(=O)c2ccco2)C1=S)C(=O)c1ccccc1)c1ccccc1 | 23.6 µM | > 50 µM | 10.9 µM | 19.5 µM | 5.58 µM | 40.9 µM | 8.71 µM | 18.7 µM | 7.24 µM | 18.7 µM | 6.95 µM | 14 µM | 8.06 µM | 21.4 µM | 12.1 µM | 25.6 µM | 1.22 µM | 4.1 µM | 12.4 µM | > 50 µM |
| COC(=O)CC1=C(C)/C(=C/c2[nH]c(-c3ccc[nH]3)cc2OC)N=C1C | 0.21 µM | 11.2 µM | 0.0461 µM | 0.107 µM | 0.34 µM | 6.69 µM | 0.187 µM | 0.633 µM | 0.311 µM | 1.95 µM | 0.325 µM | 3.09 µM | 0.584 µM | 10.1 µM | 0.149 µM | 0.354 µM | 0.042 µM | 0.159 µM | 0.315 µM | 12.8 µM |
| CNC(=O)c1cc(Oc2ccc(NC(=O)Nc3cc(C(C)(C)C)nn3-c3ccc4ncccc4c3)c(F)c2)ccn1 | 1.83 µM and 1.68 µM | 6.78 µM and 5.17 µM | 1.35 µM and 1.51 µM | 2.86 µM and 3.14 µM | 0.712 µM and 1.26 µM | 6.61 µM and 6.8 µM | 1.62 µM and 1.78 µM | 7.7 µM and 6.39 µM | 0.587 µM and 0.387 µM | 3.87 µM and 1.75 µM | 1.65 µM and 1.26 µM | 5.91 µM and 4.78 µM | 2.72 µM | 8.61 µM | 1.81 µM and 2.55 µM | 4.34 µM and 5.45 µM | 0.405 µM | 2.08 µM | 2.1 µM and 1.8 µM | 6.23 µM and 5.62 µM |
| CCC(c1ccccc1)c1cc(C(C)(C)C)cc(C(C)(C)C)c1O (centres undefined) | – | 31.6 µM | – | 32.7 µM | – | 30.7 µM | – | 32.3 µM | – | 32 µM | – | 30.9 µM | – | 32.2 µM | – | 29 µM | – | 31.9 µM | – | 33.2 µM |
| CC(=O)c1c(C)c2cnc(Nc3ccc(N4CCNCC4)cn3)nc2n(C2CCCC2)c1=O | 1.74 µM | 20.8 µM | 2.58 µM | 9.94 µM | 7.35 µM | 25 µM | 2.6 µM | 20.1 µM | 6.5 µM | 22 µM | 11.1 µM | 27 µM | 12.5 µM | 26.3 µM | 11.5 µM | 25.3 µM | 1.46 µM | 19.7 µM | 9.82 µM | 21.7 µM |
| Cc1cc(N2CCOCC2)nc(NCc2cc(Nc3ccnc4cc(Cl)ccc34)ccc2F)n1 | 1.8 µM | 3.48 µM | 1.56 µM | 2.94 µM | 1.64 µM | 3.92 µM | 1.57 µM | 3 µM | 1.56 µM | 2.92 µM | 1.86 µM | 4.2 µM | 1.52 µM | 3.91 µM | 1.95 µM | 3.61 µM | 1.75 µM | 3.27 µM | 1.6 µM | 3.08 µM |
| FC(F)(F)c1cccc(-c2[nH]ncc2-c2nnnn2-c2ccccc2)c1 | 6.3 µM | 51.2 µM | 3.01 µM | 10.6 µM | 3.96 µM | 15.4 µM | 10.7 µM | 23.6 µM | 1.86 µM | 5.89 µM | 5.86 µM | 23.3 µM | 8.43 µM | 29.7 µM | 12.8 µM | 31 µM | 6.41 µM | 19.5 µM | 7.43 µM | 21.5 µM |
| C=C(C)C(=O)Nc1ccc(-c2c(-c3ccc(Oc4nccc(C)n4)c(F)c3)c3c(N)ncnc3n2C)cc1 | 6.78 µM | 67.5 µM | 2.36 µM | 8.21 µM | 3.1 µM | 17.4 µM | 1.18 µM | 2.98 µM | 7.19 µM | 21.3 µM | 4.27 µM | 18.4 µM | 3.43 µM | 17.1 µM | 2.7 µM | 9.74 µM | 2.61 µM | 12.8 µM | 3.86 µM | 15.3 µM |
| COC(=O)c1cc(-c2ccc(S(C)(=O)=O)cc2)[nH]c1N/N=C/c1c(Cl)cccc1Cl | 0.565 µM | > 50 µM | 0.427 µM | 14.5 µM | 0.482 µM | 67.3 µM | 0.49 µM | 37.5 µM | 0.214 µM | 0.578 µM | 0.75 µM | > 93.7 µM | 1.11 µM | > 76.1 µM | 0.765 µM | > 52.9 µM | 1.61 µM | > 100 µM | 0.732 µM | 5.53 µM |
| CNc1cc(-c2cccc(OC(F)(F)F)c2)nc2ccc(N3CCCC3)cc12 | 1.46 µM and 1.61 µM and 1.5 µM | 2.95 µM and 3.1 µM and 3.01 µM | 1.74 µM and 1.65 µM and 1.64 µM | 3.12 µM and 3.06 µM and 3.01 µM | 1.57 µM and 1.74 µM and 1.72 µM | 3.08 µM and 3.39 µM and 3.25 µM | 1.36 µM and 1.32 µM and 1.42 µM | 2.67 µM and 2.61 µM and 2.74 µM | 1.59 µM and 1.71 µM and 1.63 µM | 2.97 µM and 3.19 µM and 3.09 µM | 1.8 µM and 1.94 µM and 1.74 µM | 3.67 µM and 3.62 µM and 3.32 µM | 1.64 µM and 1.57 µM and 1.74 µM | 3.43 µM and 3.06 µM and 3.42 µM | 1.72 µM and 1.69 µM and 1.77 µM | 3.19 µM and 3.17 µM and 3.23 µM | 1.71 µM and 1.74 µM | 3.24 µM and 3.28 µM and 3.23 µM | 1.61 µM and 1.84 µM and 1.88 µM | 3.12 µM and 3.5 µM and 3.4 µM |
| C=CCSC(C)=O | – | > 100 µM | – | > 100 µM | – | > 100 µM | – | > 100 µM | – | > 100 µM | – | > 100 µM | – | > 100 µM | – | > 100 µM | – | > 100 µM | – | > 100 µM |
| CSc1nc(SC)c2c(C)cn(COCCOC(=O)c3ccccc3)c2n1 | – | > 100 µM | – | > 100 µM | – | > 100 µM | – | > 100 µM | – | > 100 µM | – | > 100 µM | – | > 100 µM | – | > 100 µM | – | > 100 µM | – | > 100 µM |
| COc1cc(C2NC(=O)C(C#N)=C(Nc3cccc(C)c3)S2)ccc1O (centres undefined) | > 100 µM | > 100 µM | > 100 µM | > 100 µM | > 100 µM | > 100 µM | > 100 µM | > 100 µM | > 100 µM | > 100 µM | > 100 µM | > 100 µM | > 100 µM | > 100 µM | > 100 µM | > 100 µM | > 100 µM | > 100 µM | > 100 µM | > 100 µM |
